Laboratory results: ChEMBL document CHEMBL1777767, “Efficient radiosynthesis of 2-[(18)f]fluoroadenosine: a new route to 2-[(18)f]fluoropurine nucleosides” (ACS Med Chem Lett, 2010)

Experiments:
Type in all cases: ADME, organism-based
Conditions in all cases: in vivo, 1 h
[1] = Biodistribution in Sprague-Dawley rat urine at 10.36 to 13.69 MBq, iv after 60 mins by gamma counting
Heart = test: Biodistribution in Sprague-Dawley rat heart at 10.36 to 13.69 MBq, iv after 60 mins by gamma counting
Brain = test: Biodistribution in Sprague-Dawley rat brain at 10.36 to 13.69 MBq, iv after 60 mins by gamma counting
Blood = test: Biodistribution in Sprague-Dawley rat blood at 10.36 to 13.69 MBq, iv after 60 mins by gamma counting
Spleen = test: Biodistribution in Sprague-Dawley rat spleen at 10.36 to 13.69 MBq, iv after 60 mins by gamma counting
Liver = test: Biodistribution in Sprague-Dawley rat liver at 10.36 to 13.69 MBq, iv after 60 mins by gamma counting
Lung = test: Biodistribution in Sprague-Dawley rat lung at 10.36 to 13.69 MBq, iv after 60 mins by gamma counting
Kidney = test: Biodistribution in Sprague-Dawley rat kidney at 10.36 to 13.69 MBq, iv after 60 mins by gamma counting
Thymus = test: Biodistribution in Sprague-Dawley rat thymus at 10.36 to 13.69 MBq, iv after 60 mins by gamma counting
Intestine = test: Biodistribution in Sprague-Dawley rat intestine at 10.36 to 13.69 MBq, iv after 60 mins by gamma counting

Compound: Nc1nc([18F])nc2c1ncn2[C@@H]1O[C@H](CO)[C@@H](O)[C@H]1O
- Drug uptake [1]: 6.7 % ID/g
- Drug uptake (Heart): 3.22 % ID/g
- Drug uptake (Brain): 0.06 % ID/g
- Drug uptake (Blood): 0.47 % ID/g
- Drug uptake (Spleen): 2.85 % ID/g
- Drug uptake (Liver): 0.72 % ID/g
- Drug uptake (Lung): 9.15 % ID/g
- Drug uptake (Kidney): 3.75 % ID/g
- Drug uptake (Thymus): 0.65 % ID/g
- Drug uptake (Intestine): 1.45 % ID/g
